Results from PMC4180279 (Biochemistry, 2014).
No end group written: not given here.

Columns and labels:
[1] = target: T1, NCS-1 (Homo sapiens, UniProt P62166); test: Isothermal titration calorimetry, NCS-1 titrated into PQIQ peptide; type: binding; details: 100 μM PQIQ in cell, 1 mM NCS-1 in syringe, 25 °C, pH 7.5; complex aggregates
T1 construct: His tag (TEV-cleavable) (N, cleaved yes); made in house; host or cells: Escherichia coli BL21(DE3)
Procedure: The peptide used corresponds to residues 1903–1929 of the human P/Q receptor. The synthetic P/Q peptide, […] (hereafter termed the PQIQ peptide), was purchased from GenicBio. The peptide was delivered >95% pure.
Expression was induced overnight at 18 °C; cells were harvested, resuspended into lysis buffer [50 mM Tris-HCl (pH 7.5), 200 mM NaCl, 5 mM CaCl2, and Complete EDTA Free Protease Inhibitor (Roche Applied Science)], lysed, centrifuged, filtered, and loaded onto the Hiprep 16/10 Phenyl FF High Sub (GE Healthcare) column that was pre-equilibrated with buffer A [50 mM Tris-HCl (pH 7.5), 200 mM NaCl, and 5 mM CaCl2]. The column was extensively washed with buffer A and NCS-1 eluted using Milli-Q water. […] The purity of the sample was assessed by sodium dodecyl sulfate–polyacrylamide gel electrophoresis (SDS–PAGE) and deemed to be >95% pure. The eluted peak was concentrated and stored at −80 °C.
(§1) ITC experiments were performed using a MicroCal ITC200 instrument. […] If necessary, minor adjustments were made to the pH of the peptide solution. […] One injection of 0.2 μL, followed by 20 injections of 2 μL, was made with a 180 s spacing to allow the baseline to return after each injection. All experiments were performed in triplicate. The data were analyzed with a one-site (three-parameter) curve fitting conducted using the MicroCal-supported ITC module within Origin version 7.

[2] = Solubility / aggregation observed in ITC experiments; type: physicochemical; details: limits use of peptide as titrant in ITC; 50 mM Tris (pH 7.5), 50 mM NaCl, 5 mM CaCl2
Procedure: as §1

T1 sequence (P62166 whole entry, species assumed): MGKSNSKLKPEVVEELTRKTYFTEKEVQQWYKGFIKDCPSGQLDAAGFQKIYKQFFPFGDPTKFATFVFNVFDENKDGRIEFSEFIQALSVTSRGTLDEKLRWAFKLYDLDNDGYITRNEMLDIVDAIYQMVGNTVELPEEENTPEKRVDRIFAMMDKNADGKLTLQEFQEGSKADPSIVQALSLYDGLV

TVGKIYAAMMIMEYYRQSKAKKLQAMR [PQIQ peptide]
equilibrium binding constant [1]: not possible to obtain reliable equilibrium binding constants | solubility [2]: limitations in PQIQ peptide solubility
